Columns and labels:
[1] = Serum azithromycin pharmacokinetics after 2 hr intravenous infusion (Example 3); assay type: in vivo; conditions: male, human, 2 hr infusion
Protocol: (§1) Healthy male subjects were divided into four groups. Group A received a 2 hr intravenous infusion of a placebo solution (0 g azithromycin). Group B received a 2 hr intravenous infusion of a 1 g dose of azithromycin. Group C received a 2 hr intravenous infusion of a 2 g dose of azithromycin. Group D received a 2 hr intravenous infusion of a 4 g dose of azithromycin. […] All subjects were dosed after an overnight fast.
Tmax is the time at which Cmax is achieved.

[2] = Visual Analogue Scale gastrointestinal side effects after 2 hr intravenous infusion (Example 3); assay type: in vivo, human; set-up: key to Mean Cumulative Score (Visual Analogue Scale), abdominal pain / Mean Cumulative Score (Visual Analogue Scale), nausea / Mean Cumulative Score (Visual Analogue Scale), regurgitation / Mean Cumulative Score (Visual Analogue Scale), abdominal cramping: sum over 240 h of 0–10 VAS severity scores, averaged per subject; conditions: not corrected for placebo effects; for Incidence of Visual-Analogue-Scale score >1, abdominal cramping / Incidence of Visual-Analogue-Scale score >1, abdominal pain / Incidence of Visual-Analogue-Scale score >1, nausea / Incidence of Visual-Analogue-Scale score >1, regurgitation / Incidence of Visual-Analogue-Scale score >4, abdominal cramping / Incidence of Visual-Analogue-Scale score >4, abdominal pain / Incidence of Visual-Analogue-Scale score >4, nausea / Incidence of Visual-Analogue-Scale score >4, regurgitation: any time during 240 hour post-dose; for Mean Cumulative Score (Visual Analogue Scale), abdominal cramping / Mean Cumulative Score (Visual Analogue Scale), abdominal pain / Mean Cumulative Score (Visual Analogue Scale), nausea / Mean Cumulative Score (Visual Analogue Scale), regurgitation: entire 240 hour post-dose period
Protocol: as §1
(§2) Prior to dosing and each blood sampling time, each subject filled out a questionnaire, which consisted of a series of “Visual Analogue Scales” in which the subject was required to rate, on a scale of 0–10, the severity of certain potential side effects. The subjects were instructed that “0” indicated an absent effect and “10” indicated the worst possible effect. The subjects were instructed to interpolate between 0 and 10 for moderate side effects.
(§3) Analysis of side effect visual-analogue-scale data was carried out in two formats. In the first format (Table VIII), the analysis concentrated on the general incidence of side effects of a particular type. For each side effect type (e.g., abdominal pain), Table VIII reports the number of subjects who reported a score >1 at any time during the 240 hr post-dosing, and the number of subjects who reported a score >4 at any time during the 240 hr post-dosing. This analysis assumes that all scores >4 represent a real side effect occurrence, however mild or severe. A score >4 is presumed to reflect a moderate-to-severe side effect occurrence.
In the second format (Table IX), the analysis reflects the general severity and duration of side effects. For a particular side effect (e.g., Abdominal Pain) in a particular subject, all visual-analogue-scale scores (over the 240 hr post-dose period) were summed to give a “cumulative score” over the entire time period of evaluation. “Cumulative scores” for all members of a treatment group were summed, and divided by the number of subjects in the group, to a give a Mean Cumulative Score. […] Table IX presents Mean Cumulative Scores for abdominal pain, nausea, regurgitation, and abdominal cramping.

[3] = 3,995 patients, all dose levels combined, cited from earlier work
[4] = cited from earlier work
[5] = Visual Analogue Scale gastrointestinal side effects after duodenal or ileocecal dosing (Example 2); assay type: in vivo, human; conditions: for Incidence of Visual-Analogue-Scale score >1, abdominal cramping / Incidence of Visual-Analogue-Scale score >1, abdominal pain / Incidence of Visual-Analogue-Scale score >1, nausea / Incidence of Visual-Analogue-Scale score >1, regurgitation / Incidence of Visual-Analogue-Scale score >4, abdominal cramping / Incidence of Visual-Analogue-Scale score >4, abdominal pain / Incidence of Visual-Analogue-Scale score >4, nausea / Incidence of Visual-Analogue-Scale score >4, regurgitation: any time during 96 hour post-dose, subjects reporting/total; for Mean Cumulative Score (Visual Analogue Scale), abdominal cramping / Mean Cumulative Score (Visual Analogue Scale), abdominal pain / Mean Cumulative Score (Visual Analogue Scale), nausea / Mean Cumulative Score (Visual Analogue Scale), regurgitation: entire 96 hour post-dose period
Protocol: Healthy male subjects were divided into two groups. […] All subjects were dosed after an overnight fast.
as §2
as §3, with “(Table V),” for “(Table VIII),”, “Table V” for “Table VIII”, “the 96” for “the 240”, “scores >1” for “scores >4”
In the second format (Table VI), the analysis reflects the general severity and duration of side effects. For a particular side effect (e.g., Abdominal Pain) in a particular subject, all visual-analogue-scale scores (over the 96 hr post-dose period) were summed to give a “cumulative score” over the entire time period of evaluation. “Cumulative scores” for all members of a treatment group were summed, and divided by the number of subjects in the group, to give a Mean Cumulative Score. […] Table VI presents Mean Cumulative Scores for abdominal pain, nausea, regurgitation, and abdominal cramping.

[6] = 2 g directly into the ileocecal region
[7] = 2 g solution directly into the duodenum, n 5
[8] = 2 g solution directly into the ileocecal region, n 6

CC[C@H]1OC(=O)[C@H](C)[C@@H](O[C@H]2C[C@@](C)(OC)[C@@H](O)[C@H](C)O2)[C@H](C)[C@@H](O[C@@H]2O[C@H](C)C[C@H](N(C)C)[C@H]2O)[C@](C)(O)C[C@@H](C)CN(C)[C@H](C)[C@@H](O)[C@]1(C)O [azithromycin, 9a-aza-9a-methyl-9-deoxo-9a-homoerythromycin A]
AUC(0-inf) ([1]; 1.0 g total IV dose, n = 6): 23400 ng·h/mL
Cmax ([1]; 1.0 g total IV dose, n = 6): 3110 ng/mL
Tmax ([1]; 1.0 g total IV dose, n = 6): 1.9 h
AUC(0-inf) ([1]; 2.0 g total IV dose, n = 6): 45600 ng·h/mL
Cmax ([1]; 2.0 g total IV dose, n = 6): 6840 ng/mL
Tmax ([1]; 2.0 g total IV dose, n = 6): 1.8 h
AUC(0-inf) ([1]; 4.0 g total IV dose, n = 5): 82100 ng·h/mL
Cmax ([1]; 4.0 g total IV dose, n = 5): 9910 ng/mL
Tmax ([1]; 4.0 g total IV dose, n = 5): 1.1 h
Incidence of Visual-Analogue-Scale score >1, abdominal cramping ([2]; 1 g IV over 2 hr): 0/5
Incidence of Visual-Analogue-Scale score >1, abdominal pain ([2]; 1 g IV over 2 hr): 1/5
Incidence of Visual-Analogue-Scale score >1, nausea ([2]; 1 g IV over 2 hr): 0/5
Incidence of Visual-Analogue-Scale score >1, regurgitation ([2]; 1 g IV over 2 hr): 0/5
Incidence of Visual-Analogue-Scale score >4, abdominal cramping ([2]; 1 g IV over 2 hr): 0/5
Incidence of Visual-Analogue-Scale score >4, abdominal pain ([2]; 1 g IV over 2 hr): 0/5
Incidence of Visual-Analogue-Scale score >4, nausea ([2]; 1 g IV over 2 hr): 0/5
Incidence of Visual-Analogue-Scale score >4, regurgitation ([2]; 1 g IV over 2 hr): 0/5
Mean Cumulative Score (Visual Analogue Scale), abdominal cramping ([2]; 1.0 g IV, n 6): 0.5
Mean Cumulative Score (Visual Analogue Scale), abdominal pain ([2]; 1.0 g IV, n 6): 1.5
Mean Cumulative Score (Visual Analogue Scale), nausea ([2]; 1.0 g IV, n 6): 0
Mean Cumulative Score (Visual Analogue Scale), regurgitation ([2]; 1.0 g IV, n 6): 0
Incidence of Visual-Analogue-Scale score >1, abdominal cramping ([2]; 2 g IV over 2 hr): 1/6
Incidence of Visual-Analogue-Scale score >1, abdominal pain ([2]; 2 g IV over 2 hr): 2/6
Incidence of Visual-Analogue-Scale score >1, nausea ([2]; 2 g IV over 2 hr): 4/6
Incidence of Visual-Analogue-Scale score >1, regurgitation ([2]; 2 g IV over 2 hr): 1/6
Incidence of Visual-Analogue-Scale score >4, abdominal cramping ([2]; 2 g IV over 2 hr): 1/6
Incidence of Visual-Analogue-Scale score >4, abdominal pain ([2]; 2 g IV over 2 hr): 1/6
Incidence of Visual-Analogue-Scale score >4, nausea ([2]; 2 g IV over 2 hr): 2/6
Incidence of Visual-Analogue-Scale score >4, regurgitation ([2]; 2 g IV over 2 hr): 0/6
Mean Cumulative Score (Visual Analogue Scale), abdominal cramping ([2]; 2.0 g IV, n 6): 3.8
Mean Cumulative Score (Visual Analogue Scale), abdominal pain ([2]; 2.0 g IV, n 6): 5.7
Mean Cumulative Score (Visual Analogue Scale), nausea ([2]; 2.0 g IV, n 6): 13.2
Mean Cumulative Score (Visual Analogue Scale), regurgitation ([2]; 2.0 g IV, n 6): 0.5
Incidence of Visual-Analogue-Scale score >1, abdominal cramping ([2]; 4 g IV over 2 hr): 4/5
Incidence of Visual-Analogue-Scale score >1, abdominal pain ([2]; 4 g IV over 2 hr): 4/5
Incidence of Visual-Analogue-Scale score >1, nausea ([2]; 4 g IV over 2 hr): 3/5
Incidence of Visual-Analogue-Scale score >1, regurgitation ([2]; 4 g IV over 2 hr): 1/5
Incidence of Visual-Analogue-Scale score >4, abdominal cramping ([2]; 4 g IV over 2 hr): 2/5
Incidence of Visual-Analogue-Scale score >4, abdominal pain ([2]; 4 g IV over 2 hr): 0/5
Incidence of Visual-Analogue-Scale score >4, nausea ([2]; 4 g IV over 2 hr): 2/5
Incidence of Visual-Analogue-Scale score >4, regurgitation ([2]; 4 g IV over 2 hr): 1/5
Mean Cumulative Score (Visual Analogue Scale), abdominal cramping ([2]; 4.0 g IV, n 5): 11.8
Mean Cumulative Score (Visual Analogue Scale), abdominal pain ([2]; 4.0 g IV, n 5): 12.8
Mean Cumulative Score (Visual Analogue Scale), nausea ([2]; 4.0 g IV, n 5): 10.6
Mean Cumulative Score (Visual Analogue Scale), regurgitation ([2]; 4.0 g IV, n 5): 3.8
patients reporting gastrointestinal side effects ([3]; oral): 9.6%
incidence of abdominal pain [3]: 2.5%
incidence of diarrhea [3]: 3.6%
incidence of nausea [3]: 2.6%
oral bioavailability of an azithromycin capsule ([4]; typical value): about 38%
oral bioavailability ([4]; used to convert intravenous to equivalent oral doses): 37%
Incidence of Visual-Analogue-Scale score >1, abdominal cramping ([5]; 2 g directly into the duodenum): 5/5
Incidence of Visual-Analogue-Scale score >1, abdominal pain ([5]; 2 g directly into the duodenum): 4/5
Incidence of Visual-Analogue-Scale score >1, nausea ([5]; 2 g directly into the duodenum): 2/5
Incidence of Visual-Analogue-Scale score >1, regurgitation ([5]; 2 g directly into the duodenum): 3/5
Incidence of Visual-Analogue-Scale score >4, abdominal cramping ([5]; 2 g directly into the duodenum): 0/5
Incidence of Visual-Analogue-Scale score >4, abdominal pain ([5]; 2 g directly into the duodenum): 0/5
Incidence of Visual-Analogue-Scale score >4, nausea ([5]; 2 g directly into the duodenum): 1/5
Incidence of Visual-Analogue-Scale score >4, regurgitation ([5]; 2 g directly into the duodenum): 0/5
Incidence of Visual-Analogue-Scale score >1, abdominal cramping [5, 6]: 2/6
Incidence of Visual-Analogue-Scale score >1, abdominal pain [5, 6]: 2/6
Incidence of Visual-Analogue-Scale score >1, nausea [5, 6]: 2/6
Incidence of Visual-Analogue-Scale score >1, regurgitation [5, 6]: 0/6
Incidence of Visual-Analogue-Scale score >4, abdominal cramping [5, 6]: 0/6
Incidence of Visual-Analogue-Scale score >4, abdominal pain [5, 6]: 0/6
Incidence of Visual-Analogue-Scale score >4, nausea [5, 6]: 0/6
Incidence of Visual-Analogue-Scale score >4, regurgitation [5, 6]: 0/6
Mean Cumulative Score (Visual Analogue Scale), abdominal cramping [5, 7]: 13.2
Mean Cumulative Score (Visual Analogue Scale), abdominal pain [5, 7]: 13.4
Mean Cumulative Score (Visual Analogue Scale), nausea [5, 7]: 11.6
Mean Cumulative Score (Visual Analogue Scale), regurgitation [5, 7]: 7.2
Mean Cumulative Score (Visual Analogue Scale), abdominal cramping [5, 8]: 3.3
Mean Cumulative Score (Visual Analogue Scale), abdominal pain [5, 8]: 2.7
Mean Cumulative Score (Visual Analogue Scale), nausea [5, 8]: 2.0
Mean Cumulative Score (Visual Analogue Scale), regurgitation [5, 8]: 0
